# Reference: US20260315763A1, “OLFACTORY DELIVERY OF THERAPEUTIC PEPTIDES” (Rocket Science Health Corp., priority 2023, published 2026)
# “Also recorded” adds a separate entry of the source.
# Experiments:
# [1] = Visualizing olfactory cleft delivery with methylene blue (nasal endoscopy); assay type: in vivo, human (healthy participants)
# Source text: The primary goal of these studies is to visualize delivery to the olfactory cleft (first with technetium-99, and then with methylene blue). The device was tuned to eject the fluid at a specific velocity. This velocity was chosen based on the viscosity of the fluid and the studies in Example 1, to maximize the extent of laminar flow.
# Visualizing Olfactory Cleft Delivery with Methylene Blue
# Participants: Five healthy participants (ages 19+) with no history of sinonasal symptoms and no evidence of nasal inflammation were recruited for this study. Prior to recruitment of participants study procedures were approved by Providence Health Care research ethics board, (British Columbia, Canada) and conducted under Health Canada Investigational Testing Authorization #314993. All participants were assessed by a licensed otolaryngologist physician to confirm their eligibility. Participants completed two study visits during which a licensed otolaryngologist physician administered 0.1 mL of the visual dye tracer, methylene blue.
# Study Design: During the first visit, the methylene blue was administered using the Laminar Fluid Ejection method (1.5 mm cannula; velocity=4.5 m/s). During the second visit, methylene blue was administered using a conventional nasal spray device (Pharma systems Item #10272, UPC: 063636802714). The Pharma systems spray device was used in these experiments because it was the device normally used by the compounding pharmacy for intranasal delivery. It was the device patients and clinicians were used to at this clinic.
# Following delivery, the physician used a nasal endoscope to image the deposition of methylene blue to the olfactory cleft at up to five time points (1, 5, 8, 12, and 15 minutes following delivery). From each image, the physician judged whether at least 50% of the methylene blue fluid was delivered to the olfactory cleft. If <50% of the methylene blue was judged to have deposited in the olfactory cleft, imaging was stopped and that session's trial was completed.
# [2] = test system: inferior temporal gyrus; experiment: fMRI region of interest analysis: mean ALFF in inferior temporal gyrus; assay type: in vivo, human (participants); conditions: both olfactory delivery and spray conditions; 80 IU; baseline, 15, 60 min
# Source text: (§1) Participants: Eight participants (male and female, ages 23-30) were recruited for this study from the New Brunswick area. Participants reported no history of abnormal nasal or sinus symptoms, insulin use, diabetes, metabolic disorder, or any complicating medical conditions, or contraindications for nasal cannulation, MRI or venous blood sampling. Additionally, participants reported no previous diagnosis of SARS-COV-2 with symptoms of anosmia. Study procedures were approved by Horizon Health Network's Human Research Protection Program prior to recruitment of participants.
# (§2) Study Design: An open-label 4-arm crossover study design was used to understand the insulin brain effects between the focal deposition (cannula) and the standard nasal mister method. Undiluted solution of 80 IU (0.16 ml) prepared from U500 insulin was delivered to the olfactory region (condition A). Under this condition, 40 IU (0.08 ml) of human insulin was delivered directly by an ENT physician to each nostril. For condition B, undiluted solution containing 15% MucoLox (a thickening agent) and 80 IU (0.16 ml) insulin was delivered to the olfactory region. For condition C, a total of 1.6 ml insulin and sterile water mixture was prepared for Nasal spray delivery. The nasal spray bottle contained 80 IU of U500 insulin mixed with a sterile water solution. […]
# [3] = test system: anterior division of the cingulate gyrus; experiment: fMRI region of interest analysis: mean ALFF in anterior division of the cingulate gyrus; assay type: in vivo, human (participants); conditions: both olfactory delivery and spray conditions; 80 IU; baseline, 15, 60 min
# Source text: as §1, §2
# [4] = test system: prefrontal brain activity; experiment: Insulin delivery fMRI analysis: ALFF, prefrontal brain activity; assay type: in vivo, human (participants)
# Source text: In the in-human studies below, the device was tuned to eject the fluid at a specific velocity. This velocity was chosen based on the viscosity of the fluid and the studies described in Example 1, to maximize the extent of laminar flow.
# as §1
# Study Design: An open-label 4-arm crossover study design was used to understand the insulin brain effects between the focal deposition (cannula) and the standard nasal mister method. Undiluted solution of 80 IU (0.16 ml) prepared from U500 insulin was delivered to the olfactory region (condition A). Under this condition, 40 IU (0.08 ml) of human insulin was delivered directly by an ENT physician to each nostril. For condition B, undiluted solution containing 15% MucoLox (a thickening agent) and 80 IU (0.16 ml) insulin was delivered to the olfactory region. For condition C, a total of 1.6 ml insulin and sterile water mixture was prepared for Nasal spray delivery. The nasal spray bottle contained 80 IU of U500 insulin mixed with a sterile water solution. The spray was delivered over 4 minutes with two puffs per nostril every minute. Condition sequences AC, CA, BC, and CB comprise the 4 arms of the study.
# Participants were randomly assigned to one of two blocks. In Block 1, participants were randomly assigned by alternating sequence to one of the A arms (AC or CA). […] In Block 2, participants were randomly assigned by alternating sequence to one of the B arms (BC or CB). Block 2 participants did receive MucoLox in the cannula session. For a given participant, appointments for each condition were scheduled at a minimum of 14 days apart to ensure no carry-over effects from the previous condition.
# MRI Acquisition: Magnetic resonance imaging was completed at an imaging clinic in Moncton (Moncton MRI) using standard sequences on a 3T Siemens Skyra, VD13. Anatomical T1-weighted MPRAGE images were acquired for each subject [TR=1900 ms, TE=2.99 ms, Flip Angle=9 degrees, Voxel Size=0.45×0.45×0.9 mm, Dimensions=448×512×160]. Resting state functional T2*-weighted BOLD images [TR=2600 ms, TE=30 ms, Flip Angle=90 degrees, Voxel Size=3×3×3 mm, Dimensions=80×80×45] were acquired for each subject at baseline and again 15 minutes and 60 minutes following intranasal delivery of insulin. Each resting state functional scan consisted of 180 volumes acquired over the course of 7 minutes and 48 seconds.
# MRI Preprocessing: MRI data was preprocessed using fMRIPrep. Preprocessing steps of the anatomical images included correction for intensity nonuniformity, skull stripping, segmentation of gray matter, white matter, and cerebrospinal fluid (CSF) masks, and normalization to MNI template space. Preprocessing steps for the functional images included slice time correction, head motion correction (calculation of framewise displacement and 6-degrees of motion parameters and their temporal derivatives), registration to the subjects T1w image, normalization to MNI template space, and spatial smoothing (3 mm FWHM Gaussian kernel).
# fMRI Denoising: Functional MRI data were denoised using a standard denoising pipeline implemented in the CONN Toolbox (v 22.a) and SPM (v 12.7). […]
# [5] = test system: prefrontal and posterior brain regions; experiment: fMRI control analysis: ALFF in spray condition across Blocks 1 and 2; assay type: in vivo, human (participants); conditions: insulin without MucoLox, 80 IU
# Source text: as §1, §2
compound,measurement,setting,value
"CN(C)c1ccc2nc3ccc(=[N+](C)C)cc-3sc2c1 [Methylene Blue, methylene blue]",participants with successful delivery of >50% of the methylene blue to the olfactory cleft,"[1]; Laminar Fluid Ejection method, 0.1 mL",Four of the five participants
same,delivery of at least 50% of the dye to the olfactory cleft,"[1]; conventional nasal spray, each of the five participants",failed to deliver at least 50% of the dye to the olfactory cleft
same,Olfactory Residence Time,"[1]; participant 2.01, LFE Method, 0.1 mL, 1 attempt",15 min
same,Olfactory Residence Time,"[1]; participant 2.01, Nasal Spray, 0.1 mL, 1 attempt",0 min
same,Olfactory Residence Time,"[1]; participant 2.02, LFE Method, 0.1 mL, 2 attempts",8 min
same,Olfactory Residence Time,"[1]; participant 2.02, Nasal Spray, 0.1 mL, 1 attempt",0 min
same,Olfactory Residence Time,"[1]; participant 2.03, LFE Method, 0.1 mL, 1 attempt",5 min
same,Olfactory Residence Time,"[1]; participant 2.03, Nasal Spray, 0.1 mL, 1 attempt",0 min
same,Olfactory Residence Time,"[1]; participant 2.04, LFE Method, 0.1 mL, 5 attempts",0 min
same,Olfactory Residence Time,"[1]; participant 2.04, Nasal Spray, 0.1 mL, 1 attempt",0 min
same,Olfactory Residence Time,"[1]; participant 2.05, LFE Method, 0.1 mL, 1 attempt",1 min
same,Olfactory Residence Time,"[1]; participant 2.05, Nasal Spray, 0.1 mL, 1 attempt",0 min
insulin: Undiluted solution of 80 IU (0.16 ml) prepared from U500 insulin; spray: 80 IU of U500 insulin mixed with a sterile water solution,"ALFF over time, inferior temporal gyrus",[2],increased over time; also recorded: increase in ALFF for both conditions
same,"ALFF over time, anterior division of the cingulate gyrus",[3],decreased over time; also recorded: decrease in ALFF in both the olfactory delivery and spray conditions
same,prefrontal brain activity compared to baseline,"[4]; 80 IU intranasal insulin, scans after receiving insulin (15 and 60 minutes)",decreased prefrontal brain activity compared to baseline scans
same,"decrease in prefrontal brain activity, olfactory delivery device compared to spray mister","[4]; 80 IU, olfactory delivery device vs traditional spray mister",larger and longer-lasting decrease in prefrontal brain activity
same,"prefrontal deactivation, olfactory delivery device compared to spray device","[4]; Block 1 (insulin without MucoLox), 80 IU",greater and more sustained
same,"reduction in prefrontal brain activity, olfactory delivery compared to spray","[4]; Block 1, 80 IU, 60 minutes",even more intense in the olfactory delivery condition
same,change in prefrontal brain activity compared to baseline,"[4]; Block 1, both spray and olfactory delivery device, 80 IU, 15 minutes",reduction in brain activity in prefrontal regions
same,change in prefrontal brain activity compared to baseline,"[4]; Block 1, olfactory delivery device, 80 IU, 15 minutes, compared to insulin with MucoLox (Block 2)",this reduction is greater in the absence of MucoLox
same,change in prefrontal brain activity compared to baseline,"[4]; Block 2, spray mister, 80 IU, 15 minutes",small decrease of prefrontal brain activity
same,change in prefrontal brain activity compared to baseline,"[4]; Block 2, spray mister, 80 IU, 60 minutes",remained deactivated
same,"reduction in prefrontal brain activity, spray condition compared to olfactory delivery with MucoLox","[4]; Block 2, spray, 80 IU, 60 minutes",more intense in the spray condition
same,duration of reduction of brain activity after delivery,[4]; delivery of insulin using the method disclosed (olfactory delivery),at least 60 minutes
same,"deactivation of the prefrontal cortex, olfactory delivery device compared to spray mister","[4]; intranasal delivery of insulin, 80 IU, overall conclusion",deactivation of the prefrontal cortex to a greater degree
same,"deactivation of prefrontal cortex, insulin alone compared to insulin with MucoLox","[4]; olfactory delivery device, 80 IU","greater, longer lasting deactivation of prefrontal cortex"
same,"reduction in prefrontal brain activity, Block 1 compared to Block 2 (MucoLox)","[4]; olfactory delivery device, 80 IU, 60 minutes",more intense in Block 1 participants who did not receive MucoLox
same,"brain activity, Block 2 compared to Block 1 participants",[5]; 15 minutes,increased brain activity in prefrontal cortex and reduced brain activity in posterior brain regions
same,"brain activity, Block 2 compared to Block 1 participants",[5]; 60 minutes,decreased brain activity in select prefrontal and posterior regions
